Measured values published in US20260217693A1, “SRPK1 INHIBITORS AND METHODS OF USE” (ALLIANTHERA (SUZHOU) BIOPHARMACEUTICAL CO., LTD., priority 2023, published 2026).

What follows are molecules tested against SRPK1 (Homo sapiens, UniProt Q96SB4) (assay: SRPK1 assay, Method 1 (ADP-Glo luminescence)). Settings: Method 1 (no asterisk): substrate Human SRSF1/SF2, 25° C. for 90 min, test compounds 30 μM top, 3-fold, duplicate.
Chain of SRPK1 (Q96SB4 whole entry): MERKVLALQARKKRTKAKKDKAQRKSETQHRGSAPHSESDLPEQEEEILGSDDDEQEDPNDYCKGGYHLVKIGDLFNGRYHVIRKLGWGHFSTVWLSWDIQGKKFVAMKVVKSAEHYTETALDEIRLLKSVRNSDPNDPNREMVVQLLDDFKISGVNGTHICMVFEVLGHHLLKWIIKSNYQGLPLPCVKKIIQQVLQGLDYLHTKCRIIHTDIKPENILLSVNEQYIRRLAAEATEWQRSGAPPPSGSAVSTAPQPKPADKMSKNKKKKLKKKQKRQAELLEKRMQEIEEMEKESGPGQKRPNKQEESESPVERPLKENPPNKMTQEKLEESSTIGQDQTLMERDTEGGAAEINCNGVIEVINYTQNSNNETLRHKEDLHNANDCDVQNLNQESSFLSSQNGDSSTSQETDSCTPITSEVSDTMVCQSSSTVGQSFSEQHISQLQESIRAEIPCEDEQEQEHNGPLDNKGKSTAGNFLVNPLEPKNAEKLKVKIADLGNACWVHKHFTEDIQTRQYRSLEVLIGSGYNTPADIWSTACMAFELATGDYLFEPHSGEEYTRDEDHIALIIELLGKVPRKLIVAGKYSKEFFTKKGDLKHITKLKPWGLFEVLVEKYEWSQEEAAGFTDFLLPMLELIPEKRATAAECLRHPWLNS
Type: biochemical
Protocol: The SPRK1 assay was performed as follows:
Method 1: The assay buffer was prepared. The reference compound was diluted to 10 mM. The test compounds were prepared at a concentration of 30 mM. Fifteen nL of compounds/DMSO were transferred to a multi-well plate. Then, 7.5 ul enzyme SRPK1 was added to each well, the plate was spun down at 1000 rpm and centrifuged for 30 sec. Then, 7.5 ul substrate Human SRSF1/SF2 was added to each well, the plate spun down at 1000 rpm and centrifuged for 30 sec. The plate was then incubated at 25° C. for 90 min. After 90 min, 5 μl of ADP-Glo™ Reagent was added to each well and the plate incubated at room temperature for 60 minutes. Then, 10 μl of Kinase Detection Reagent was added to each well and the plate incubate at room temperature for 60 minutes. The luminescence of each well was recorded on Envision. The test compounds were at 30 μM top, 3-fold, in duplicate, and the final concentration of DMSO was 0.1%.
All assays were performed using Method 1, except where indicated with an asterisk (*) in the below table, indicating Method 2 was used.
In the case of `CC1C[C@@H](O)CCN1c1ncc(C(F)(F)F)cc1NC(=O)c1ccc(-c2ccncc2)o1` (stereo in doubt) [Compound 079, N-(2-((2R,4S)-4-hydroxy-2-methylpiperidin-1-yl)-5-(trifluoromethyl)pyridin-3-yl)-5-(pyridin-4-yl) furan-2-carboxamide], the IC50 is reported as 102 nM.
`CC1C[C@@H](O)CCN1c1ncc(C(F)(F)F)cc1NC(=O)c1ccc(-c2ccncc2)o1` (stereo in doubt) [Compound 080, N-(2-((2S,4S)-4-hydroxy-2-methylpiperidin-1-yl)-5-(trifluoromethyl)pyridin-3-yl)-5-(pyridin-4-yl) furan-2-carboxamide] showed an IC50 of 344 nM.
For `O=C(Nc1cc(C(F)(F)F)cnc1N1CCN(Cc2ccccn2)CC1)c1ccc(C2CCOCC2)o1` [Compound 002, N-(2-(4-(pyridin-2-ylmethyl)piperazin-1-yl)-5-(trifluoromethyl)pyridin-3-yl)-5-(tetrahydro-2H-pyran-4-yl) furan-2-carboxamide], the IC50 was 309 nM.
`CN1CCN(c2ncc(C(F)(F)F)cc2NC(=O)c2ccc(-c3ccncc3)o2)CC1` [Compound 003] was tested, and the IC50 was 971 nM.
`O=C(Nc1cc(C(F)(F)F)cnc1N1CCC(O)CC1)c1ccc(-c2ccncc2)o1` [Compound 004, N-(2-(4-hydroxypiperidin-1-yl)-5-(trifluoromethyl)pyridin-3-yl)-5-(pyridine-4-yl) furan-2-carboxamide] showed an IC50 of 79 nM.
`O=C(Nc1cc(C(F)(F)F)cnc1N1CCC(O)CC1)c1ccc(C2CCOCC2)o1` [Compound 005] showed an IC50 of 41.9 nM.
For `O=C(Nc1cc(Cl)cnc1N1CCC(O)CC1)c1ccc(C2CCOCC2)o1` [Compound 007], the IC50 was 252 nM.
`O=C(Nc1cc(C(F)(F)F)cnc1-c1ccccc1)c1ccc(C2CCOCC2)o1` [Compound 008] gave an IC50 greater than 30000 nM.
Molecule `O=C(Nc1cc(C(F)(F)F)cnc1-c1cccnc1)c1ccc(C2CCOCC2)o1` [Compound 009] has an IC50 greater than 30000 nM.
Molecule `O=C(Nc1cc(C(F)(F)F)cnc1-c1ccncc1)c1ccc(C2CCOCC2)o1` [Compound 010] has an IC50 of 8240 nM.
With `Cn1cc(-c2ncc(C(F)(F)F)cc2NC(=O)c2ccc(C3CCOCC3)o2)cn1` [Compound 011] the IC50 was 7490 nM.
For `O=C(Nc1cc(C(F)(F)F)cnc1-c1cn[nH]c1)c1ccc(C2CCOCC2)o1` [Compound 012], the IC50 was 109 nM.
`O=C(Nc1cc(C(F)(F)F)cnc1-c1cncnc1)c1ccc(C2CCOCC2)o1` [Compound 013] showed an IC50 of 14700 nM.
`O=C(Nc1cc(C(F)(F)F)cnc1-c1cn[nH]c1)c1ccc(-c2ccncc2)o1` [Compound 014] was tested, and the IC50 was greater than 30000 nM.
`O=C(Nc1cc(C(F)(F)F)cnc1N1CCC(O)CC1)c1ccc(-c2ccnc(F)c2)o1` [Compound 016] gave an IC50 greater than 30000 nM.
`O=C(Nc1cc(C(F)(F)F)cnc1-c1ccn[nH]1)c1ccc(C2CCOCC2)o1` [Compound 019] showed an IC50 of 217 nM.
Molecule `O=C(Nc1cc(C(F)(F)F)cnc1N1CCC(O)CC1)c1ccc(-c2ccnc(O)c2)o1` [Compound 021] has an IC50 of 13.5 nM.
In the case of `O=C(Nc1cc(C2CC2)cnc1N1CCC(O)CC1)c1ccc(-c2ccnc(F)c2)o1` [Compound 023], the IC50 is reported as 55.1 nM.
For `CC1(O)CCN(c2ncc(Cl)cc2NC(=O)c2ccc(-c3ccncc3)o2)CC1` [Compound 024], the IC50 was 346 nM.
In the case of `CC1(O)CCN(c2ncc(Cl)cc2NC(=O)c2ccc(C3CCOCC3)o2)CC1` [Compound 025], the IC50 is reported as 170 nM.
For `CC1(O)CCN(c2ncc(C(F)(F)F)cc2NC(=O)c2ccc(-c3ccncc3)o2)CC1` [Compound 026], the IC50 was 358 nM.
Molecule `CC1(O)CCN(c2ncc(C(F)(F)F)cc2NC(=O)c2ccc(C3CCOCC3)o2)CC1` [Compound 027, N-[2-(4-hydroxy-4-methyl-1-piperidyl)-5-(trifluoromethyl)-3-pyridyl]-5-tetrahydropyran-4-yl-furan-2-carboxamide] has an IC50 of 36.7 nM.
For `CC(=O)OC1CCN(c2ncc(C3CC3)cc2NC(=O)c2ccc(C3CCOCC3)o2)CC1` [Compound 028], the IC50 was 105 nM.
Molecule `O=C(Nc1cc(C2CC2)cnc1N1CCC(O)CC1)c1ccc(C2CCOCC2)o1` [Compound 029] has an IC50 of 30.9 nM.
`CN1CCC2(CCN(c3ncc(C(F)(F)F)cc3NC(=O)c3ccc(C4CCOCC4)o3)CC2)C1=O` [Compound 030] was tested, and the IC50 was 232 nM.
With `O=C(Nc1cc(C(F)(F)F)cnc1N1CCCC(O)CC1)c1ccc(C2CCOCC2)o1` (stereo not drawn) [Compound 031] the IC50 was 360 nM.
`COC(=O)C1(C)CCN(c2ncc(C(F)(F)F)cc2NC(=O)c2ccc(C3CCOCC3)o2)CC1` [Compound 032, methyl 4-methyl-1-[3-[(5-tetrahydropyran-4-ylfuran-2-carbonyl)amino]-5-(trifluoromethyl)-2-pyridyl]piperidine-4-carboxylate] gave an IC50 of 114 nM.
In the case of `CC(=O)OC1CCN(c2ncc(C3CC3)cc2NC(=O)c2ccc(-c3ccncc3)o2)CC1` [Compound 033, 1-(5-cyclopropyl-3-(5-(pyridin-4-yl)furan-2-carboxamido)pyridin-2-yl) piperidin-4-yl acetate], the IC50 is reported as 202 nM.
With `O=C(Nc1cc(C2CC2)cnc1N1CCC(O)CC1)c1ccc(-c2ccncc2)o1` [Compound 034] the IC50 was 24.8 nM.
With `O=C(Nc1cc(C(F)(F)F)cnc1N1CCC(O)C1)c1ccc(C2CCOCC2)o1` (stereo not drawn) [Compound 035] the IC50 was greater than 30000 nM.
`O=C(Nc1cc(C(F)(F)F)cnc1N1CCCCC1)c1ccc(C2CCOCC2)o1` [Compound 036] showed an IC50 greater than 30000 nM.
`O=C(Nc1cc(C(F)(F)F)cnc1N1CCOCC1)c1ccc(C2CCOCC2)o1` [Compound 037] was tested, and the IC50 was greater than 30000 nM.
Molecule `O=C(Nc1cc(C(F)(F)F)cnc1N1CCC(CO)C1)c1ccc(C2CCOCC2)o1` (stereo not drawn) [Compound 038] has an IC50 of 24500 nM.
With `O=C(Nc1cc(C(F)(F)F)cnc1N1CC(O)C1)c1ccc(C2CCOCC2)o1` [Compound 039] the IC50 was greater than 30000 nM.
`CN(C)C(=O)C1CCN(c2ncc(C(F)(F)F)cc2NC(=O)c2ccc(C3CCOCC3)o2)CC1` [Compound 040] was tested, and the IC50 was 193 nM.
Molecule `O=C(Nc1cc(C(F)(F)F)cnc1N1CCSCC1)c1ccc(C2CCOCC2)o1` [Compound 041] has an IC50 greater than 30000 nM.
`O=C(Nc1cc(C(F)(F)F)cnc1N1CCS(=O)(=O)CC1)c1ccc(C2CCOCC2)o1` [Compound 042] showed an IC50 greater than 30000 nM.
`CC1(CN)CCN(c2ncc(C(F)(F)F)cc2NC(=O)c2ccc(C3CCOCC3)o2)CC1` [Compound 043] showed an IC50 greater than 30000 nM.
`CC1(C(=O)O)CCN(c2ncc(C(F)(F)F)cc2NC(=O)c2ccc(C3CCOCC3)o2)CC1` [Compound 044] gave an IC50 of 154 nM.
`CN(C)C(=O)C1(C)CCN(c2ncc(C(F)(F)F)cc2NC(=O)c2ccc(C3CCOCC3)o2)CC1` [Compound 045] was tested, and the IC50 was 84.5 nM.
Molecule `O=C(Nc1cc(C(F)(F)F)cnc1N1CCC(O)CC1)c1ccncc1` [Compound 046, N-[2-(4-hydroxy-1-piperidyl)-5-(trifluoromethyl)-3-pyridyl]pyridine-4-carboxamide] has an IC50 greater than 30000 nM.
Work on `O=C(Nc1cc(C(F)(F)F)cnc1N1CCC(O)CC1)c1ccccn1` [Compound 047] yielded an IC50 of 260 nM.
In the case of `CC(=O)OC1CCN(c2ncc(C(F)(F)F)cc2NC(=O)c2ccc(-c3ccnnc3)o2)CC1` [Compound 049], the IC50 is reported as 2340 nM.
`O=C(Nc1cc(C(F)(F)F)cnc1N1CCC(O)CC1)c1ccc(-c2ccnnc2)o1` [Compound 050] was tested, and the IC50 was 435 nM.
For `O=C(Nc1cc(C(F)(F)F)cnc1N1CCC(O)CC1)c1cccnc1` [Compound 051], the IC50 was greater than 30000 nM.
`Cn1cc(-c2ccc(C(=O)Nc3cc(C(F)(F)F)cnc3N3CCC(O)CC3)o2)cn1` [Compound 054] was tested, and the IC50 was 18.5 nM.
For `CC1(O)CCCN(c2ncc(C(F)(F)F)cc2NC(=O)c2ccc(C3CCOCC3)o2)CC1` (stereo not drawn) [Compound 055], the IC50 was 45.1 nM.
With `O=C(Nc1cc(C(F)(F)F)cnc1N1CCC(O)CC1)c1ccc(-c2cccnc2)o1` [Compound 056] the IC50 was 23.5 nM.
For `CNC(=O)C1(C)CCN(c2ncc(C(F)(F)F)cc2NC(=O)c2ccc(C3CCOCC3)o2)CC1` [Compound 057], the IC50 was 30.5 nM.
For `CC1(O)CCCN(c2ncc(C(F)(F)F)cc2NC(=O)C2CCC(C3CCOCC3)O2)CC1` (stereo not drawn) [Compound 058], the IC50 was 15700 nM.
With `CC(=O)OC1CC2(CCN(c3ncc(C(F)(F)F)cc3NC(=O)c3ccc(C4CCOCC4)o3)CC2)C1` [Compound 059] the IC50 was 78.7 nM.
For `O=C(Nc1cc(C(F)(F)F)cnc1N1CCC2(CC1)CC(O)C2)c1ccc(C2CCOCC2)o1` [Compound 060], the IC50 was 51.9 nM.
With `O=C(Nc1cc(C(F)(F)F)cnc1N1CCC(O)CC1)c1ccc(C2CCNCC2)o1` [Compound 061] the IC50 was 8200 nM.
Work on `O=C(Nc1cc(C(F)(F)F)cnc1C1CCNCC1)c1ccc(C2CCOCC2)o1` [Compound 062] yielded an IC50 greater than 30000 nM.
Work on `O=C(Nc1cc(C(F)(F)F)cnc1N1CCC(O)CC1)c1ccc(-c2cncnc2)o1` [Compound 063] yielded an IC50 of 13500 nM.
`O=C(Nc1cc(C(F)(F)F)cnc1N1CCC(O)(C(F)(F)F)CC1)c1ccc(-c2ccncc2)o1` [Compound 064] was tested, and the IC50 was 249 nM.
With `O=C1CC2(CCN(c3ncc(C(F)(F)F)cc3NC(=O)c3ccc(C4CCOCC4)o3)CC2)C1` [Compound 065, N-(2-(2-oxo-7-azaspiro[3.5]nonan-7-yl)-5-(trifluoromethyl)pyridin-3-yl)-5-(tetrahydro-2H-pyran-4-yl) furan-2-carboxamide] the IC50 was 204 nM.
In the case of `CN1CCC(c2ccc(C(=O)Nc3cc(C(F)(F)F)cnc3N3CCC(O)CC3)o2)CC1` [Compound 066, N-[2-(4-hydroxy-1-piperidyl)-5-(trifluoromethyl)-3-pyridyl]-5-(1-methyl-4-piperidyl) furan-2-carboxamide], the IC50 is reported as greater than 30000 nM.
In the case of `CC(=O)OC1CCN(c2ncc(C(F)(F)F)cc2NC(=O)c2ccc(C(F)(F)F)cn2)CC1` [Compound 068], the IC50 is reported as greater than 30000 nM.
`O=C(Nc1cc(C(F)(F)F)cnc1N1CCC(O)(C(F)(F)F)CC1)c1ccc(C2CCOCC2)o1` [Compound 069] was tested, and the IC50 was 63.7 nM.
